Laboratory results reported in patent US5616684A, “Cyclic peptides and use thereof” (priority 1991, dated 1997).
Non-standard residues stand in square brackets, D forms with d. Residues, ends and D or L forms follow the SMILES beside them. *: point of attachment. d(aIle) = CC[C@H](C)[C@@H](N)C(=O)O; d2Thi = N[C@H](Cc1cccs1)C(=O)O; dPhg = N[C@@H](C(=O)O)c1ccccc1; Bn = c1ccc(C*)cc1

Tests used:
[1] = system: ETB receptor (guinea pig kidney crude receptor membrane fraction); experiment: ETB Radio Receptor Assay *2; assay type: binding; conditions: relative activity (Example 8 given as 100), 125I-endothelin-1, 37° C., 90 minutes
Summary of the method: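 Crude membranes from guinea pig kidney (2.1 μg protein) incubated with 740 Bq ^125I-endothelin-1 and test sample, 90 min at 37 °C, in 50 mM Tris-HCl pH 7.4 with 0.1 mM PMSF, 1 mM EDTA, 0.2% BSA. Bound ligand separated by fast filtration and counted by gamma counter.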

[2] = target: T1, endothelin receptor B (ETB) (Bos taurus, UniProt P28088); experiment: Assay of Affinity for Receptor (2): Binding Activity on ETB Receptor *1; design: key: relative specific activity, Example 8 compound = 100; conditions: specific activity, binding activity of the compound of Example 8 taken as 100; bovine brain membrane fraction, 125I labeled endothelin-1, 25° C., 1 hour
T1 construct: A membrane fraction prepared from the bovine brain; from tissue; host or cells: bovine brain membrane fraction
T1 sequence (P28088 27-441): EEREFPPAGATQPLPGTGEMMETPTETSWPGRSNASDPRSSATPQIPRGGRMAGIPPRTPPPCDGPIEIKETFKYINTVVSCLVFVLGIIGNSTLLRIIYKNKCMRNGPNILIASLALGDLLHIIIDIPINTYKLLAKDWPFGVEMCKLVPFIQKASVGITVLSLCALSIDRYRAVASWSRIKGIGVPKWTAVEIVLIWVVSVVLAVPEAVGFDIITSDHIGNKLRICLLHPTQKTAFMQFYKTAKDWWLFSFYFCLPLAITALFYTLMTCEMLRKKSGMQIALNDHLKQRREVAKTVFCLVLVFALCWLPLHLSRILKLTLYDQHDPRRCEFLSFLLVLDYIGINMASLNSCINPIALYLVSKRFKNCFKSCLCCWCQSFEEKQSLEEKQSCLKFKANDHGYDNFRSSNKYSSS
Procedure: Assay of Affinity for Receptor (2) . . . Binding Activity on ETB Receptor *1
A membrane fraction prepared from the bovine brain was diluted to 0.15 mg/ml by using a buffer solution for assay, and 100 μl of the resulting suspension of the membrane fraction was poured into each assay tube to use for assay. To this suspension of the membrane fraction was added 2 μl of 5 nM ^125 I labeled endothelin-1 solution. Further, 3 μl of a test peptide solution was added thereto, followed by incubation at a temperature of 25° C. for 1 hour. Then, the resulting suspension was diluted with 900 μl of the buffer solution for assay cooled with ice, and thereafter separated into a supernatant and a precipitate by centrifugation at 12,000×g for 10 minutes. Cell membranes and an endothelin receptor B (ETB) embedded therein were contained in the precipitate, and radioactive iodine-labeled endothelin bound to the receptor was also recovered in the precipitate. Accordingly, the amount of radioactive iodine-labeled endothelin bound to the endothelin receptor B (ETB) was determined by measuring the amount of radioactive iodine contained in the precipitate with a gamma-ray counter. The numerical value of ETB shown in Table 1 is the value of specific activity, taking the binding activity of the compound of Example 8 on the receptor B as 100.

[3] = target: T2, endothelin receptor A (ETA) (Sus scrofa, UniProt Q29010); experiment: Assay of Affinity for Receptor (1): Binding Activity on ETA Receptor; design: key to Binding Activity on ET Receptor (R. act.) ETA: relative binding activity; reference cyclic pentapeptide = 1.0; conditions: specific activity, binding activity of cyclo[-D-Glu-Ala-D-aIle-Leu-D-Trp-] taken as 1.0; porcine heart membrane fraction, 125I-labeled endothelin-1, 25° C., 1 hour
T2 construct: A membrane fraction prepared from the porcine heart; from tissue; host or cells: porcine heart membrane fraction
T2 sequence (Q29010 21-427): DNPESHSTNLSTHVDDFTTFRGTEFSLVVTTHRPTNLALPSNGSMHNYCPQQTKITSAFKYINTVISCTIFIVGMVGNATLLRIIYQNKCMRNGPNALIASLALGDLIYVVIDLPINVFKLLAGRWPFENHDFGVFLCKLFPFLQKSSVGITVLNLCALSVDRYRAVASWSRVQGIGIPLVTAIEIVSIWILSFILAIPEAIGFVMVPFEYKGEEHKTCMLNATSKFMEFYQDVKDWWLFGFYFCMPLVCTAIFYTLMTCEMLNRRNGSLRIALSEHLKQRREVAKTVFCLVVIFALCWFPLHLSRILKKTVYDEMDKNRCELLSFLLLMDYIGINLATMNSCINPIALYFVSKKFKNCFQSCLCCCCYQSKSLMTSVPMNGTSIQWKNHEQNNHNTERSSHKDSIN
Summary of the method: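 Porcine heart membranes (0.15 mg/ml) incubated with 125I-endothelin-1 and test peptide for 1 h at 25 °C, then diluted with ice-cold buffer and pelleted at 12,000×g; bound radioactivity gamma-counted. Values expressed as specific activity relative to cyclo[-D-Glu-Ala-D-aIle-Leu-D-Trp-] set at 1.0.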

[4] = amide bond; 18-membered ring; HONB ester (HONB/DCC)/TEA; DMF; 5.0 mM; 4 steps

| Binding Activity on ET Receptor (R. act.) ET8 *2 [1] | Binding Activity on ET Receptor (R. act.) ET8 *1 [2] | Binding Activity on ET Receptor (R. act.) ETA [3] | Compound | ring closure, yield after HPLC [4] |
| --- | --- | --- | --- | --- |
| 18 | 22 | 24 | CC(C)C[C@@H]1NC(=O)[C@@H](CC(C)C)NC(=O)[C@H](CO)NC(=O)[C@H](Cc2c[nH]c3ccccc23)NC(=O)[C@@H](CC(=O)O)NC(=O)[C@@H](Cc2c[nH]c3ccccc23)NC1=O [Example 37, Cyclo[--D--Asp--Trp--Ser--D--Leu--Leu--D--Trp--]] (cyclo(L[dW][dD]WS[dL])) |  |
| 170 | 66 | 13 | CC(C)C[C@@H]1NC(=O)[C@@H](CC(C)C)NC(=O)[C@H](COCc2ccccc2)NC(=O)[C@H](Cc2c[nH]c3ccccc23)NC(=O)[C@@H](CC(=O)O)NC(=O)[C@@H](Cc2c[nH]c3ccccc23)NC1=O [Example 38, Cyclo[--D--Asp--Trp--Ser(Bzl)--D--Leu--Leu--D--Trp--]] (cyclo(L[dW][dD]WS(Bn)[dL])) |  |
| 180 | 74 | 87 | CC(C)C[C@@H]1NC(=O)[C@@H](c2ccccc2)NC(=O)[C@H](CC(=O)O)NC(=O)[C@H](Cc2c[nH]c3ccccc23)NC(=O)[C@@H](CC(=O)O)NC(=O)[C@@H](Cc2c[nH]c3ccccc23)NC1=O [Example 45, Cyclo[--D--Asp--Trp--Asp--D--Phg--Leu--D--Trp--]] (cyclo(D[dPhg]L[dW][dD]W)) |  |
| 57 | 350 | 4 | CC(C)C[C@@H]1NC(=O)[C@@H](Cc2cccs2)NC(=O)[C@H](CC(=O)O)NC(=O)[C@H](Cc2c[nH]c3ccccc23)NC(=O)[C@@H](CC(=O)O)NC(=O)[C@@H](Cc2c[nH]c3ccccc23)NC1=O [Example 50, Cyclo[--D--Asp--Trp--Asp--D--Thi--Leu--D--Trp--]] (cyclo(D[d2Thi]L[dW][dD]W)) |  |
| 290 | 210 | 100 | CC[C@H](C)[C@H]1NC(=O)[C@H](CC(=O)O)NC(=O)[C@H](Cc2c[nH]c3ccccc23)NC(=O)[C@@H](CC(=O)O)NC(=O)[C@@H](Cc2c[nH]c3ccccc23)NC(=O)[C@H](CC(C)C)NC1=O [Example 51, Cyclo[--D--Asp--Trp--Asp--D--aIle--Leu--D--Trp--]] (cyclo(D[d(aIle)]L[dW][dD]W)) |  |
| 100 | 240 | 75 | CC(C)C[C@@H]1NC(=O)[C@@H](C(C)C)NC(=O)[C@H](CC(=O)O)NC(=O)[C@H](Cc2c[nH]c3ccccc23)NC(=O)[C@@H](CC(=O)O)NC(=O)[C@@H](Cc2c[nH]c3ccccc23)NC1=O [Example 52, Cyclo[--D--Asp--Trp--Asp--D--Val--Leu--D--Trp--]] (cyclo(D[dV]L[dW][dD]W)) |  |
| 22 | 6.7 | 0.7 | CC(C)C[C@H]1NC(=O)[C@H](CC(=O)O)NC(=O)[C@H](C)NC(=O)[C@@H](CC(=O)O)NC(=O)[C@@H](Cc2c[nH]c3ccccc23)NC(=O)[C@H](Cc2c[nH]c3ccccc23)NC1=O [Example 58, Cyclo[--D--Asp--Ala--Asp--D--Leu--Trp--D--Trp--]] (cyclo(AD[dL]W[dW][dD])) |  |
| 44 | 210 | 1 | CC(C)C[C@@H]1NC(=O)[C@@H](Cc2ccccc2)NC(=O)[C@H](CC(=O)O)NC(=O)[C@H](Cc2c[nH]c3ccccc23)NC(=O)[C@@H](CC(=O)O)NC(=O)[C@@H](Cc2c[nH]c3ccccc23)NC1=O [Example 60, Cyclo[--D--Asp--Trp--Asp--D--Phe--Leu--D--Trp--]] (cyclo(D[dF]L[dW][dD]W)) |  |
| 71 | 45 | 750 | cyclo[-D-Asp-Glu(Bzl)-Asp-D-Thg(2)-Leu-D-Trp-] [Example 89] |  |
|  |  |  | cyclo[-D-Asp-Trp-Asp-D-tLeu-Leu-D-Trp-] | 42.8% |
